Assay results as given in patent US20160250285A1, “NEUROPROTECTIVE PEPTIDES” (priority 2013, published 2016).
Like-named read-outs stand apart in the source and are kept apart here. Square brackets hold non-standard residues; d marks the D form.

Columns and labels:
[1] = test system: primary cortical neuronal cultures; conditions: for neuroprotection (neuronal viability): peptide 15 min prior to and during glutamic acid exposure, viability 24 h, MTS; for neuroprotection when added immediately after glutamic acid exposure: 0 min post-insult (FIG. 1d); for neuroprotection when added 15 minutes post-insult: 15 min post-glutamic acid (FIG. 1d)
Protocol: Briefly, cortical tissue from E18-E19 Sprague-Dawley rats was dissociated in Dulbecco's modified Eagle medium (DMEM; Invitrogen, Australia) supplemented with 1.3 mM L-cysteine, 0.9 mM NaHCOa, 10 units/ml papain (Sigma, USA) and 50 units/ml DNase (Sigma) and washed in cold DMEM/10% horse serum. Neurons were resuspended in Neurobasal (Invitrogen) containing 2% B27 supplement (B27; Invitrogen). Before seeding, 96-well sized glass wells (6 mm diameter, ProTech, Australia) or 96-well plastic plates (ProSciTech, Australia) were coated with poly-D-lysine overnight ([…]: 50 mg/mL; 70-150 K, Sigma). […] Neurons were plated to obtain ≈10,000 viable neurons for each well on day in vitro 11-12. […] On day in vitro 4 one third of the culture medium was removed and replaced with fresh Neurobasal/2% B27 containing the mitotic inhibitor, cytosine arabinofuraNOside (1 mM final concentration; Sigma). On day in vitro 8 one half of the culture medium was replaced with Neurobasal/2% B27.
(§1) To induce excitotoxicity, 50 μl of Neurobasal/2% B27 containing glutamic acid (200 μM) or kainic acid (400 μM) or NMDA (200 μM) was added to the culture wells (100 μM glutamic acid, 200 μM kainic acid and NMDA 100 μM final concentration). Cultures were incubated at 37° C. in the CO2 incubator for 5 minutes for glutamic acid, 45 minutes for kainic acid and 10 minutes for NMDA exposure, after which time the media was replaced with 100 μl of 50% Neurobasal/2% N2 supplement (Invitrogen) and 50% balanced salt solution (BSS; see below). Cultures were incubated for a further 24 hours at 37° C. in the CO2 incubator. The untreated controls with or without glutamic acid or kainic acid treatment received the same wash steps and media additions.
Following this step, cultures were treated as described above. Untreated controls with or without glutamic acid exposure received the same wash steps and media additions. In addition, a post-glutamic acid exposure CPP treatment (5 μM) experiment was performed for the R9 peptide and the JNKI-1D-TAT control peptide.
For pre-glutamic acid exposure experiments, neurons were exposed to peptide(s) for a 10 minute period, immediately before or 1, 2, 3, 4 or 5 hours prior to glutamic acid exposure. […] At the relevant peptide pre-treatment time, media was removed and replaced with 100 μl of Neurobasal/2%. […] Following 5-minute glutamic acid exposure, neuronal culture wells were treated as described above. For all experiments untreated controls with or without glutamic acid treatment underwent the same incubation steps and media additions.
Heparin (for injection) was obtained from Pfizer (1000 IU/ml). Two different heparin experiments were performed: 1. Peptides were incubated with heparin (20 IU/ml) in Neurobasal/B27 for 5 minutes at room temperature, before addition to culture wells (50 μl) for 15 minutes at 37° C. in the CO2 incubator. Following the incubation period, media in wells was removed and replaced with 100 μl of Neurobasal/2% B27 containing glutamic acid (100 μM), and subsequently treated as described above; 2. Media in wells was replaced with Neurobasal/2% B27 containing heparin (50 μl; 40 IU/ml) and incubated for 5 minutes at 37° C. in the CO2 incubator. After the incubation period, peptides or glutamate receptor blockers (MK801/CNQX) in Neurobasal/2% B27 (50 μl) were added to the culture wells and cultures incubated for a further 10 minutes at 37° C. in the CO2 incubator. Following the incubation period, media in wells was removed and replaced with 100 μl of Neurobasal/2% B27 containing glutamic acid (100 μM), and subsequently treated as described above. For all experiments, non-heparin treated peptide controls with glutamic acid treatment underwent the same incubation steps and media additions.
Twenty-four hours after insult, neuronal cultures were examined by light microscopy for qualitative assessment of neuronal cell viability.

[2] = test system: primary cortical neuronal cultures; conditions: FIG. 2
Protocol: Establishment of cortical cultures was as previously described (Meloni et al. 2001). Briefly, cortical tissue from E18-E19 Sprague-Dawley rats was dissociated in Dulbecco's modified Eagle medium (DMEM; Invitrogen, Australia) supplemented with 1.3 mM L-cysteine, 0.9 mM NaHCOa, 10 units/ml papain (Sigma, USA) and 50 units/ml DNase (Sigma) and washed in cold DMEM/10% horse serum. Neurons were resuspended in Neurobasal (Invitrogen) containing 2% B27 supplement (B27; Invitrogen). Before seeding, 96-well sized glass wells (6 mm diameter, ProTech, Australia) or 96-well plastic plates (ProSciTech, Australia) were coated with poly-D-lysine overnight ([…]: 50 mg/mL; 70-150 K, Sigma). Excess poly-D-lysine solution was then removed and replaced with Neurobasal (containing 2% B27; 4% fetal bovine serum; 1% horse serum; […] glutamate; […] 2-mercaptoethanol; and […]). Neurons were plated to obtain ≈10,000 viable neurons for each well on day in vitro 11-12. Neuronal cultures were maintained in a CO2 incubator (5% CO2, 95% air balance, 98% humidity) at 37° C. On day in vitro 4 one third of the culture medium was removed and replaced with fresh Neurobasal/2% B27 containing the mitotic inhibitor, cytosine arabinofuraNOside (1 mM final concentration; Sigma). On day in vitro 8 one half of the culture medium was replaced with Neurobasal/2% B27. Cultures were used on day in vitro 11 or 12 after which time they routinely consist of >97% neurons and 1-3% astrocytes (Meloni et al. 2001).
as §1, with “Peptides were added to culture wells (96-well plate format) 15 minutes prior to glutamic acid or kainic acid exposure by removing media and adding 50 μl of Neurobasal/2% 327 containing CPPs, control peptides or MK801/CNQX. To” for “To”
(§2) Twenty-four hours after insult, neuronal cultures were examined by light microscopy for qualitative assessment of neuronal cell viability. Neuronal viability was quantitatively measured by 3-(4,5,dimethyliazol-2-yl)-5-(3-carboxymethoxy-phenyl)-2-(4-sulfophenyl)-2H-tetrazolium salt (MTS) assay (Promega, Australia). The MTS assay measures the cellular conversion of the tetrazolium salt to a water-soluble brown formazan salt, which is detected spectrophotometrically at 490 nm. MTS absorbance data were converted to reflect proportional cell viability relative to both the untreated and treated controls, with the untreated control taken as 100% viability, and presented as mean±SEM. For studies using astrocytes, bEND3, and SH-Y5Y cells, raw MTS data was used to generate graphs. Viability data was analysed by ANOVA, followed by post-hoc Fischer's PLSD test, with P<0.05 values considered statistically significant. Four- to six wells were used in all assays.

[3] = test system: primary cortical neuronal cultures; assay: In vitro ischemia / oxygen-glucose deprivation (OGD) model, neurons; assay type: cell-based, rat; conditions: peptide present during in vitro ischemia and at 50% dose after (FIG. 3a)
Protocol: Establishment of cortical cultures was as previously described (Meloni et al. 2001). Briefly, cortical tissue from E18-E19 Sprague-Dawley rats was dissociated in Dulbecco's modified Eagle medium (DMEM; Invitrogen, Australia) supplemented with 1.3 mM L-cysteine, 0.9 mM NaHCOa, 10 units/ml papain (Sigma, USA) and 50 units/ml DNase (Sigma) and washed in cold DMEM/10% horse serum. Neurons were resuspended in Neurobasal (Invitrogen) containing 2% B27 supplement (B27; Invitrogen). Before seeding, 96-well sized glass wells (6 mm diameter, ProTech, Australia) or 96-well plastic plates (ProSciTech, Australia) were coated with poly-D-lysine overnight (50 ml/well: 50 mg/mL; 70-150 K, Sigma). Excess poly-D-lysine solution was then removed and replaced with Neurobasal (containing 2% B27; 4% fetal bovine serum; 1% horse serum; 62.5 mM glutamate; 25 mM 2-mercaptoethanol; and 30 mg/mL streptomycin and 30 mg/mL penicillin). Neurons were plated to obtain ≈10,000 viable neurons for each well on day in vitro 11-12. Neuronal cultures were maintained in a CO2 incubator (5% CO2, 95% air balance, 98% humidity) at 37° C. On day in vitro 4 one third of the culture medium was removed and replaced with fresh Neurobasal/2% B27 containing the mitotic inhibitor, cytosine arabinofuraNOside (1 mM final concentration; Sigma). On day in vitro 8 one half of the culture medium was replaced with Neurobasal/2% B27. Cultures were used on day in vitro 11 or 12 after which time they routinely consist of >97% neurons and 1-3% astrocytes (Meloni et al. 2001).
The in vitro ischemia model used for primary cortical neuronal cultures was performed as previously described (Meloni et at 2011) Briefly, culture media was removed from wells (glass 96-well plate format) and washed with 315 μl of glucose free balanced salt solution (BSS; mM: 116 NaCl, 5.4 KCl, 1.8 CaCl2, 0.8 MgSO4, 1 NaH2PO4; pH 6.9) before the addition of 60 μl BSS containing cell penetrating or control peptides (see Table 1). A non-peptide positive control consisting of the glutamate receptor blockers (5 μM MK801/5 μM 6-cyano-7-nitroquinoxaline: MK801/CNQX) was also included. In vitro ischemia was initiated by placing wells in an anaerobic incubator (Don Whitely Scientific, England; atmosphere of 5% CO2, 10% H2 and 85% argon, 98% humidity) at 37° C. for 55 minutes. Upon removal from the anaerobic incubator, 60 μl of Neurobasal/2% N2 supplement was added to the wells and cultures incubated for a further 24 hours at 37° C. in the CO2 incubator. Control cultures received the same BSS wash procedures and media additions as ischemic treated cultures before incubation at 37° C. in the CO2 incubator.
Control cultures underwent the same BSS wash procedures and media additions as OGD treated cultures.
Twenty-four hours after insult, neuronal cultures were examined by light microscopy for qualitative assessment of neuronal cell viability. Neuronal viability was quantitatively measured by 3-(4,5,dimethyliazol-2-yl)-5-(3-carboxymethoxy-phenyl)-2-(4-sulfophenyl)-2H-tetrazolium salt (MTS) assay (Promega, Australia). The MTS assay measures the cellular conversion of the tetrazolium salt to a water-soluble brown formazan salt, which is detected spectrophotometrically at 490 nm. MTS absorbance data were converted to reflect proportional cell viability relative to both the untreated and treated controls, with the untreated control taken as 100% viability, and presented as mean±SEM. […] Viability data was analysed by ANOVA, followed by post-hoc Fischer's PLSD test, with P<0.05 values considered statistically significant. Four- to six wells were used in all assays.

[4] = test system: intracellular calcium influx in neuronal cultures; assay: Intracellular calcium influx (Fura-2 AM) after glutamic acid; assay type: cell-based, rat; conditions: peptide 5 μM for 10 min, removed before 100 μM glutamic acid (FIG. 44)
Protocol: Fura-2 AM was used for intracellular calcium assessment. Representative fluorescent Fura-2 AM tracers; fluorescence intensity (FI) of neuronal cultures 30 sec before and following addition (arrow) of glutamic acid (100 μM final concentration). Peptides or glutamate receptor blockers were added to neuronal cultures for 10 min and removed (time 0) before glutamic acid. Values are mean±SE; n=3. Peptide concentration was 5 μM.
Briefly, cortical tissue from E18-E19 Sprague-Dawley rats was dissociated in Dulbecco's modified Eagle medium (DMEM; Invitrogen, Australia) supplemented with 1.3 mM L-cysteine, 0.9 mM NaHCOa, 10 units/ml papain (Sigma, USA) and 50 units/ml DNase (Sigma) and washed in cold DMEM/10% horse serum. Neurons were resuspended in Neurobasal (Invitrogen) containing 2% B27 supplement (B27; Invitrogen). Before seeding, 96-well sized glass wells (6 mm diameter, ProTech, Australia) or 96-well plastic plates (ProSciTech, Australia) were coated with poly-D-lysine overnight (50 ml/well: 50 mg/mL; 70-150 K, Sigma). Excess poly-D-lysine solution was then removed and replaced with Neurobasal (containing 2% B27; 4% fetal bovine serum; 1% horse serum; 62.5 mM glutamate; 25 mM 2-mercaptoethanol; and 30 mg/mL streptomycin and 30 mg/mL penicillin). Neurons were plated to obtain ≈10,000 viable neurons for each well on day in vitro 11-12. Neuronal cultures were maintained in a CO2 incubator (5% CO2, 95% air balance, 98% humidity) at 37° C. On day in vitro 4 one third of the culture medium was removed and replaced with fresh Neurobasal/2% B27 containing the mitotic inhibitor, cytosine arabinofuraNOside (1 mM final concentration; Sigma). On day in vitro 8 one half of the culture medium was replaced with Neurobasal/2% B27. Cultures were used on day in vitro 11 or 12 after which time they routinely consist of >97% neurons and 1-3% astrocytes (Meloni et al. 2001).

[5] = test system: primary cortical neuronal cultures; conditions: values from Meade et al. (2010a,b); read-out: IC50: Glutamic acid model; cited from earlier work
[6] = test system: primary cortical neuronal cultures; assay: NMDA excitotoxicity model; assay type: cell-based, rat; conditions: peptide 15 min before and during NMDA exposure (FIG. 37)
Protocol: Establishment of cortical cultures was as previously described (Meloni et al. 2001). Briefly, cortical tissue from E18-E19 Sprague-Dawley rats was dissociated in Dulbecco's modified Eagle medium (DMEM; Invitrogen, Australia) supplemented with 1.3 mM L-cysteine, 0.9 mM NaHCOa, 10 units/ml papain (Sigma, USA) and 50 units/ml DNase (Sigma) and washed in cold DMEM/10% horse serum. Neurons were resuspended in Neurobasal (Invitrogen) containing 2% B27 supplement (B27; Invitrogen). Before seeding, 96-well sized glass wells (6 mm diameter, ProTech, Australia) or 96-well plastic plates (ProSciTech, Australia) were coated with poly-D-lysine overnight ([…]: 50 mg/mL; 70-150 K, Sigma). […]
as §2, with “For studies using astrocytes, bEND3, and SH-Y5Y cells, raw MTS data was used to generate graphs. Viability data was analysed by ANOVA, followed by post-hoc Fischer's PLSD test, with P<0.05 values considered statistically significant. Four- to six wells were used in all assays.” left out

[7] = test system: primary cortical neuronal cultures; conditions: values from Meade et al. (2010a,b); read-out: IC50: Kainic acid model; cited from earlier work

GRKKRRQRRRGGLQGRRRQGYQSIKP [PYC36L-TAT, reference compound]
effect of heparin on neuroprotective action ([1]; heparin 20 IU/ml with peptide or 40 IU/ml on cultures (FIGS. 39, 40)): blocks neuroprotective actions
neuroprotection (neuronal viability) [1]: highly effective
neuroprotection [2]: effective
neuroprotection [3]: effective
calcium influx after glutamic acid [4]: to varying degrees reduced calcium influx
IC50 [5]: 1500 nM

H-GRKKRRQRRR-KLSSIESDV-NH2 (H-GRKKRRQRRRKLSSIESDV-NH2) [NR2B9c-TAT, reference compound]
neuroprotection when added immediately after glutamic acid exposure [1]: did not significantly increase neuronal survival
neuroprotection when added 15 minutes post-insult [1]: did not significantly increase neuronal survival
neuroprotection, milder insult ([1]; FIG. 1i, comparison at 0.5 μM and 1 μM): ineffective
neuroprotection (neuronal viability) ([1]; listed as TAT-NR29C): ineffective
neuroprotection [6]: low level neuroprotection
calcium influx after glutamic acid [4]: to varying degrees reduced calcium influx

H-tdqsrpvqpflnlttprkprpp-rrrqrrkkrG-NH2 (H-[dT][dD][dQ][dS][dR][dP][dV][dQ][dP][dF][dL][dN][dL][dT][dT][dP][dR][dK][dP][dR][dP][dP][dR][dR][dR][dQ][dR][dR][dK][dK][dR]G-NH2; SMILES CC(C)C[C@@H](NC(=O)[C@@H](Cc1ccccc1)NC(=O)[C@H]1CCCN1C(=O)[C@@H](CCC(N)=O)NC(=O)[C@H](NC(=O)[C@H]1CCCN1C(=O)[C@@H](CCCNC(=N)N)NC(=O)[C@@H](CO)NC(=O)[C@@H](CCC(N)=O)NC(=O)[C@@H](CC(=O)O)NC(=O)[C@H](N)[C@H](C)O)C(C)C)C(=O)N[C@H](CC(N)=O)C(=O)N[C@H](CC(C)C)C(=O)N[C@@H](C(=O)N[C@@H](C(=O)N1CCC[C@@H]1C(=O)N[C@H](CCCNC(=N)N)C(=O)N[C@H](CCCCN)C(=O)N1CCC[C@@H]1C(=O)N[C@H](CCCNC(=N)N)C(=O)N1CCC[C@@H]1C(=O)N1CCC[C@@H]1C(=O)N[C@H](CCCNC(=N)N)C(=O)N[C@H](CCCNC(=N)N)C(=O)N[C@H](CCCNC(=N)N)C(=O)N[C@H](CCC(N)=O)C(=O)N[C@H](CCCNC(=N)N)C(=O)N[C@H](CCCNC(=N)N)C(=O)N[C@H](CCCCN)C(=O)N[C@H](CCCCN)C(=O)N[C@H](CCCNC(=N)N)C(=O)NCC(N)=O)[C@H](C)O)[C@H](C)O) [JNKI-1D-TAT, reference compound]
neuroprotection when added immediately after glutamic acid exposure [1]: ineffective
neuroprotection when added immediately after glutamic acid exposure ([1]; listed as JNKI-1 D-TAT): did not significantly increase neuronal survival
neuroprotection when added 15 minutes post-insult [1]: ineffective
neuroprotection when added 15 minutes post-insult ([1]; listed as JNKI-1 D-TAT): did not significantly increase neuronal survival
neuroprotection (neuronal viability) [1]: highly effective
neuroprotection (neuronal viability) ([1]; listed as JNKI-1-TATD): neuroprotective
neuroprotection [2]: effective
calcium influx after glutamic acid [4]: to varying degrees reduced calcium influx
IC50 [5]: 2100 nM
IC50 [7]: 6500 nM
